pIC50: −log10 of the molar value.
These molecules were tested on corn leaf (assay: Dark induced senescence of corn leaf (leaf discs, image analysis)). Conditions: 100 μM-0.0001 μM, 23° C., up to 8 days, 12 replicates, read-out: IC50 for dark induced senescence of corn leaf (concentration at which 50% senescence was achieved).
Assay type: in vivo, corn (variety Multitop)
Experimental: It is known that strigolactones regulate (accelerate) leaf senescence, potentially through D14 receptor signaling. Compounds of the present invention (IA) were compared to structurally-related compounds (P) in a corn leaf dark induced senescence assay. Corn plants of variety Multitop were grown in a greenhouse with relative 75% humidity and at 23-25° C. for 6 weeks. 1.4 cm diameter leaf discs were placed into 24-well plates containing a test compounds in a concentration gradient (100 μM-0.0001 μM) at a final concentration of 0.5% DMSO. Each concentration was tested in 12 replicates. Plates were sealed with seal foil. The foil was pierced to provide gas exchange in each well. The plates were placed into the completely dark climatic chamber. Plates were incubated in the chamber with 75% humidity and at 23° C. for 8 days. On days 0, 5, 6, 7 and 8 photographs were taken of each plates, and image analysis conducted with a macro developed using the ImageJ software. The image analysis was used to determine the concentration at which 50% senescence was achieved (IC50), see Table 3. The lower the value, the higher senescence induction potency.

Row | pIC50 | SMILES
1 | 6.96 | CC1=CC(OC=C2C(=O)N(CC#N)C3c4ccccc4CC23)OC1=O (stereo not drawn) [Compound P1]
2 | 5.01 | CC1=CC(OC=C2C(=O)N(CC#N)C3c4ccccc4CC23)OC1=O (stereo not drawn) [Compound P2]
3 | 5.14 | CC1=CC(OC=C2C(=O)N(CC#N)C3c4ccccc4CC23)OC1=O (stereo not drawn) [Compound P3]
4 | 5.61 | CC1=CC(OC=C2C(=O)N(CC#N)C3c4ccccc4CC23)OC1=O (stereo not drawn) [Compound P4]
5 | 7.13 | CC1=CC(OC=C2C(=O)N(CC#N)C3c4ccccc4CC23)OC1=O (stereo not drawn) [Compound P6-Z]

Same assay, conditions: Zea mays, foliar, 192 h, 100 μM-0.0001 μM, 23° C., up to 8 days, 12 replicates, read-out: IC50 for dark induced senescence of corn leaf (concentration at which 50% senescence was achieved)

Row | pIC50 | SMILES
6 | 7.52 | CC(=O)N1C(=O)/C(=C/OC2OC(=O)C(C)=C2C)C2Cc3ccccc3C21 (stereo not drawn) [IA-1, (3E)-1-acetyl-3-[(3,4-dimethyl-5-oxo-2H-furan-2-yl)oxymethylene]-4,8b-dihydro-3aH-indeno[1,2-b]pyrrol-2-one]
7 | 6.77 | CC1=C(C)C(O/C=C2/C(=O)N(c3ccccc3)C3c4ccccc4CC23)OC1=O (stereo not drawn) [IA-8, (3E)-3-[(3,4-dimethyl-5-oxo-2H-furan-2-yl)oxymethylene]-1-phenyl-4,8b-dihydro-3aH-indeno[1,2-b]pyrrol-2-one]
8 | 6.81 | CC1=C(C)C(O/C=C2/C(=O)N(CC#N)C3c4ccccc4CC23)OC1=O (stereo not drawn) [IA-10-E]
9 | 7.15 | CC1=C(C)C(O/C=C2\C(=O)N(CC#N)C3c4ccccc4CC23)OC1=O (stereo not drawn) [IA-10-Z, 2-[(3Z)-3-[(3,4-dimethyl-5-oxo-2H-furan-2-yl)oxymethylene]-2-oxo-4,8b-dihydro-3aH-indeno[1,2-b]pyrrol-1-yl]acetonitrile]

Source: patent publication US20210253560A1, “PLANT GROWTH REGULATING COMPOUNDS” (SYNGENTA PARTICIPATIONS AG, priority 2018, published 2021)
